≈ marks a conversion by molar mass, not a printed value. Where two headings read alike, the source gives them in different places.

What is called IC50 is the concentration that gives 50% inhibition.

The assay has as its system washed platelet. In words: Effect on platelet aggregation (washed platelets stimulated with thrombin or platelet-activating factor, Born method). It counts as cell-based, white rabbit. Particulars: for IC50: Oryctolagus cuniculus, 0.05 h, 3 min incubation, 37° C. As for the experimental part: 8.5 vol of blood was collected from the carotid arteries of a white rabbit, and placed in a tube containing 1.5 vol of a citrate-dextrose solution (71 mM citric acid, 85 mM sodium citrate and 111 mM dextrose). The thus obtained blood was centrifuged at 200 xg for 15 minutes to obtain platelet-rich plasma (PRP). This PRP was centrifuged at 650×g for 10 minutes to obtain platelet precipitates. After washing with Ca^++ -free Tyrode's solution containing 2 mM ethylenebis(oxyethylenenitrilo)tetraacetic acid (hereinafter referred to as EGTA), the platelet precipitates were centrifuged again at 650×g for 10 minutes for washing. The resulting platelet precipitates were suspended in Ca^++ -free Tyrode's solution containing 0.25% bovine serum albumin to reach a density of 5×10^8 cells/ml. After allowing to stand for about 30 minutes, 1 mM CaCl2 or 1 mM EGTA was added to the suspension of the washed platelet. The mixture was allowed to stand for further 30 minutes, and then platelet aggregation was measured.
The platelet aggregation was measured with an aggregometer, ACGRETEC TE-500 (product of Erma Optical Co., Ltd.) to which the Born method was applied.
First, 10 μl portions of a test compound solution were added to 0.2 ml portions of the suspension of the washed platelet, while stirring at 1,000 rpm and at 37° C. After incubation at 37° C. for 3 minutes, 10 μl portions of a stimulating agent thrombin (final concentration : 0.05 U/ml) or platelet-activating factor (final concentration: 10^-10 M) were added thereto, respectively to initiate the reaction. The rate of platelet aggregation inhibition of the test compound were calculated from the maximum aggregation rate obtained by the use of the test compound and the maximum aggregation rate obtained by use of only the solvent used for dissolving the test compound, according to the following equation. The effect of the test compound was determined as the drug concentration which gave the inhibition rate of 50%. [formula] A: maximum aggregation rate in use of the solvent alone B: maximum aggregation rate in use of the test compound

Turning to `CCCCCCCc1cc(O)cc(OC(=O)c2c(O)cc(O)cc2CCCCCCC)c1` [Compound 4], the IC50 is, setting by setting: (stimulating agent platelet-activating factor, final concentration 10^-10 M, read-out: IC50 (platelet aggregation inhibition, stimulating agent platelet-activating factor)) 45 µg/mL (≈ 102 µM); (Platelet, stimulating agent thrombin, final concentration 0.05 U/ml, read-out: IC50 (platelet aggregation inhibition, stimulating agent thrombin)) 72 µg/mL (≈ 163 µM). In addition, the “inhibition of platelet aggregation, in words” value (stimulated with thrombin and platelet-activating factor) is “inhibited platelet aggregation”.

These data come from patent US5004833A, “KS-501 derivatives” (Kyowa Hakko Kogyo Co., Ltd., priority 1988, dated 1991).
